The text below walks through data of patent US20030129189A1, “Tumor necrosis factor-gamma” (priority 1994, published 2003).

Assay [1] relates to Primary human aterial endothelial. In words: TNF-gamma activity on primary human arterial endothelial cells. It counts as cell-based. Further details: key: The numbers of “+” indicate the relative level of activities.; ++: The numbers of “+” indicate the relative level of activities.; +++: The numbers of “+” indicate the relative level of activities.; “−” indicates no detected activity at the concentration range tested.

The subject of a further assay is Raji. As to the kind of experiment: TNF-gamma activity on Raji cells. Further details: key: The numbers of “+” indicate the relative level of activities.; ++: The numbers of “+” indicate the relative level of activities.; +++: The numbers of “+” indicate the relative level of activities.; “−” indicates no detected activity at the concentration range tested. Particulars: human Burkitt's lymphoma. Type of assay: cell-based. The protocol: The adherent target cells were prepared from confluent cultures by trypsinization in PBS, and non-adherent target cells were harvested from stationary cultures and washed once with medium. Target cells were suspended at 3×10^5 cells/ml in medium containing 10% FCS. 0.1 ml aliquots were dispensed into 96-well flat-bottomed microtiter plates containing 0.1 ml serially diluted test samples of cells (WEHI 164 and L929). Incubation was continued for 70 hours. TNF-alpha, TNF-beta and bacterially-produced TNF-gamma were added at a 0.5 μg/ml concentration. The cytotoxicity and proliferation activity was quantified using an MTS assay performed by the addition of 20 μl of MTS and phenazine methosulfate (PMS) solution to each well. After a three hour incubation, the OD at 492 nm was measured by an ELISA plate reader. The OD492 is proportional to the number of viable cells in the wells. The percent of cytotoxicity was calculated as follows: […]. The photographs were taken after 72 hours.

In the next assay the test system is Primary HUVEC. In words: TNF-gamma activity on primary HUVEC. It counts as cell-based, human. Further details: key: The numbers of “+” indicate the relative level of activities.; ++: The numbers of “+” indicate the relative level of activities.; +++: The numbers of “+” indicate the relative level of activities.; “−” indicates no detected activity at the concentration range tested.

In assay [2] the target is T1, CD30 on transiently transfected cells (UniProt P28908 19-595, limits assumed).
T1 construct: whole, on cells
T1 sequence (looked up): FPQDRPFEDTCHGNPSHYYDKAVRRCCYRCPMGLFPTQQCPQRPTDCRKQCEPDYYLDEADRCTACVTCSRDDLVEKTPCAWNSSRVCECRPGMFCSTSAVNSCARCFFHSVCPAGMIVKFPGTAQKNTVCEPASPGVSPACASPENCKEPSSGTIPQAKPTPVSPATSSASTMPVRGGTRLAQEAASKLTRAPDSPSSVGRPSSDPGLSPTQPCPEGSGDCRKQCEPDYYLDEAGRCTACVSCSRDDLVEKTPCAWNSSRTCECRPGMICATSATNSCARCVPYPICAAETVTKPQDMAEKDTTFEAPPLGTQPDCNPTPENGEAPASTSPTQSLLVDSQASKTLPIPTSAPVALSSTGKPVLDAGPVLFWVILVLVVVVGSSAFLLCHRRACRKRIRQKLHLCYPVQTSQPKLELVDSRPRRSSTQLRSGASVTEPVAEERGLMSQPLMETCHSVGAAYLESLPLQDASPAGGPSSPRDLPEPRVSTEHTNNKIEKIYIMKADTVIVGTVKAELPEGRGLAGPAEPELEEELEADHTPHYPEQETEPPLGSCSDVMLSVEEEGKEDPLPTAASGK
In words: flow cytometry on transiently transfected cells. As to the method:
(§1) One million cells, in 0.1 ml of FACS buffer (PBS, 0.1% BSA, 0.1% NaN₃), were incubated with 0.1-1 microgram of protein or antibody at RT for 15 min. The cells were washed with 3 ml of FACS buffer, reacted with biotinylated primary antibody, and stained with PE-conjugated secondary antibody at RT for 15 min. Cells were then washed again, resuspended in 0.5 microgram/ml of propidium iodide, and live cells were gated and analyzed on a FACScan using the CellQuest software (BD Biosciences).

For assay [3], the target named is T2, HveA on transiently transfected cells (UniProt Q92956 39-283, limits assumed).
T2 construct: whole, on cells
T2 sequence (looked up): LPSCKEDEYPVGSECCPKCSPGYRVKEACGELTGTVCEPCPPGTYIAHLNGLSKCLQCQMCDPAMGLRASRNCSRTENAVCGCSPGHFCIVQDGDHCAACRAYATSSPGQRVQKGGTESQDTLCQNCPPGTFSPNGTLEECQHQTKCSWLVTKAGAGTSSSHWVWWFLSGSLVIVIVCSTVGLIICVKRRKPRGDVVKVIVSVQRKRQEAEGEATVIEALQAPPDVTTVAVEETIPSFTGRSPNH
As to the kind of experiment: flow cytometry on transiently transfected cells. The protocol: as §1

Assay [4] has as its target T3, 4-1BB on transiently transfected cells (UniProt Q07011 24-255).
T3 construct: whole, on cells
As to the kind of experiment: flow cytometry on transiently transfected cells. As to the method:
as §1

Assay [5] has as its target T4, RANK on transiently transfected cells (UniProt Q9Y6Q6 30-616, limits assumed).
T4 construct: whole, on cells
T4 sequence (looked up): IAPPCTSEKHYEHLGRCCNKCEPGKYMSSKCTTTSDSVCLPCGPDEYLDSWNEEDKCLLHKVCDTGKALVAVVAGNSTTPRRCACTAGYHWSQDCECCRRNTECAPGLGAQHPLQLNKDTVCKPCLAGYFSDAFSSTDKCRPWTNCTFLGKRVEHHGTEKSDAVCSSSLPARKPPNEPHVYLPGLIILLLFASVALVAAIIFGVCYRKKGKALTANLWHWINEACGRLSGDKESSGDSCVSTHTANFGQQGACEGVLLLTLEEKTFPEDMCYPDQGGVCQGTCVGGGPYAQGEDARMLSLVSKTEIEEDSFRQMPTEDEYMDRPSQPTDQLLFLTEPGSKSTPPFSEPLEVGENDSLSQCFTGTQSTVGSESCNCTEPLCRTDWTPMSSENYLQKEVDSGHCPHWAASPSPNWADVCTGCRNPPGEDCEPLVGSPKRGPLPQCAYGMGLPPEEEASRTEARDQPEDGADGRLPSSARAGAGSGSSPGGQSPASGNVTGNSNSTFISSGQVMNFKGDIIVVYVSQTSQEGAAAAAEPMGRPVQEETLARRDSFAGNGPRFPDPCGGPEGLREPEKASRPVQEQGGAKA
As to the kind of experiment: flow cytometry on transiently transfected cells. As to the method:
as §1

Assay [6] deals with T5, CD27 on transiently transfected cells (UniProt P26842 20-260, limits assumed).
T5 construct: whole, on cells
T5 sequence (looked up): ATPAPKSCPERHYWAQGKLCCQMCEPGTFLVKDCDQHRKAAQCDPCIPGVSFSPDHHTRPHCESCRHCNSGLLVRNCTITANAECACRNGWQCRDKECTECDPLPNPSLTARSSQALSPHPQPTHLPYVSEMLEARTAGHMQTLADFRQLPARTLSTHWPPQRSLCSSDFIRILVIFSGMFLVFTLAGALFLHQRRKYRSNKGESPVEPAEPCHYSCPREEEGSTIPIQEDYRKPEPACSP
As to the kind of experiment: flow cytometry on transiently transfected cells. As to the method:
as §1

T3 sequence (Q07011 24-255): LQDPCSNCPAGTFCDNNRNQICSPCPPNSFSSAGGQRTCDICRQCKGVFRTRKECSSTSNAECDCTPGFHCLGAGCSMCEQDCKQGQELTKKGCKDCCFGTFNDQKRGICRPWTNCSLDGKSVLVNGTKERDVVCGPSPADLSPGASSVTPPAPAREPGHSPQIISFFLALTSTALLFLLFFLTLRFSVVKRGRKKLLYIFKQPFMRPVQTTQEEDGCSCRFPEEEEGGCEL

In the case of “TNF-gamma: new member of the tumor necrosis factor family; the term refers to TNF-gamma-alpha and/or TNF-gamma-beta”, in assay [1], the Differentiation result is “−?” and the Proliferation entry is on record as “++”. Besides, in the assay with Raji, the Adhesion result is “−−”, the Differentiation entry is listed as “−−” and the Proliferation entry is on record as “−”. Further, in the assay on Primary HUVEC, the Differentiation entry is reported as “−?” and the Proliferation result is on record as “++”.

B1: FLAG-tagged soluble TNF-gamma-beta (aa 72-251) (ligand)
chain: LKGQEFAPSHQQVYAPLRADGDKPRAHLTVVRQTPTQHFKNQFPALHWEHELGLAFTKNRMNYTNKFLLIPESGDYFIYSQVTFRGMTSECSEIRQAGRPNKPDSITVVITKVTDSYPEPTQLLMGTKSVCEVGSNWFQPIYLGAMFSLQEGDKLMVNVSDISLVDYTKEDKTFFGAFLL
notes: also called FLAG-TL1β; FLAG-TNF-gamma-beta; not shown: The N-terminal FLAG tag (pFLAG-CMV-1 vector) and any vector linker
B1: the binding result in assay [2], in assay [3], in assay [4], in assay [5] and in assay [6] was “no binding” each time.
